Broadly, the IC50 is the concentration needed to halve the response being measured. Read a low IC50 as greater potency in that assay. What is called % Inhibition is how much of the control response was suppressed. Read a low % Inhibition as little suppression.

Here are results for 1 compound from paper PMC5762315, “Inhibition of polo-like kinase 4 (PLK4): a new therapeutic option for rhabdoid tumors and pediatric medulloblastoma” (Oncotarget, 2017).

One data set concerns the target DDR2 (Homo sapiens, UniProt Q16832). Briefly: Kinase activity screening (SelectScreen), DDR2. Format: biochemical.
The target in another data set is MUSK (Homo sapiens, UniProt O15146). Briefly: Kinase activity screening (SelectScreen), MUSK. In kind it is biochemical. The settings on record: 10-point titration.
The target of data set [1] is various kinases (Homo sapiens, UniProt P05771). Kind of data set: biochemical. Format: biochemical. The following applies: kinase PRKCB1 (PKC beta I); ZLYTE.
The target of data set [2] is various kinases (Homo sapiens, UniProt P07333). Kind of data set: biochemical. Format: biochemical. The following applies: CSF1R (FMS).
A further data set deals with MON cells. Briefly: Viability assay (Presto Blue), MON. In kind it is cell-based. The settings on record: Homo sapiens, dose-response 1nM to 10μM. The protocol:
(§1) Except DAOY and D283, all cell lines were plated with 2 x 10^3 cells per well 96-well and the absorbance was measured after 48 and 72 hours at drug concentrations of 5, 10, 50, 100, 200, 500nM, 1μM and 5μM.

The test system of a further data set is G401 cells. Kind of data set: Viability assay (Presto Blue), G401. Format: cell-based. The following applies: Homo sapiens, G-401, dose-response 1nM to 10μM. The protocol: as §1
Another data set relates to MON MRT cells. Kind of data set: Confluency assay (IncuCyte ZOOM), MON. Format: cell-based, human. The following applies: increasing concentrations starting at 31.25nM, 48 hours, p-value=0.004. The protocol: (§2) For further evaluation of the effect of the PLK4 inhibitor over tumor cell proliferation, confluency was measured over a 48 hour period. MON, BT-12, G401 and DAOY cells were plated in 96-well plates with a density of 6 x 10^4 per well. […] Confluency was monitored for 48 hours by taking phase contrast images every 2 hours and measured using an IncuCyte ZOOM system (Essen BioScience, USA). Experiments were performed in triplicates.

Another data set deals with BT-12 AT/RT cells. Briefly: Confluency assay (IncuCyte ZOOM), BT-12. Format: cell-based, human. The following applies: increasing concentrations starting at 31.25nM, 48 hours, p-value=0.001. The protocol: as §2
Data set [3] deals with PLK4 mRNA expression in MON rhabdoid cells. Briefly: qRT-PCR for PLK4 transcript in treated MON cells. Format: cell-based, human. The following applies: 10, 50, 100 and 500nM for 24, 48 and 72 hours. The protocol: The expression of PLK4 (Hs00179514_m1) in each cell line was verified by TaqMan GE assays (Thermo Fisher Scientific, USA) using the housekeeping gene GAPDH (Hs02758991_g1) as reference. Total RNA (2μg) was used to make cDNA using the Applied Biosystems High Capacity RNA-to-cDNA kit (Thermo Fisher Scientific). Reactions were performed in triplicate with adequate positive and negative controls. The normalized expression levels were calculated by the ΔΔCt method using the housekeeping gene and a pool of all samples as calibrator.

The next data set relates to MON rhabdoid cells. Kind of data set: Flow cytometry cell cycle analysis (polyploidy), MON. Format: cell-based, human. The following applies: 100nM for 3-72 hours. The protocol: Cell cycle evaluation was performed by staining the cells with PI (Thermo Fisher Scientific, USA) according to manufacturer’s instructions. […] Data was analyzed using Modfit LT from Verity Software House. Experiments were performed in triplicates.

The nature of data set [4]: Brain to plasma ratio (B:P), LC-MS/MS. Format: in vivo, male CD-1 mice. The settings on record: male, CD-1, mouse, po, 7.5 mg/kg, 4 hours post-dose. The protocol: Male CD-1 mice weighing between 20 and 40 grams were fitted with jugular vein cannulas as appropriate and fasted overnight until 4 hours post-dose. Double route of administration (oral and IV) were tested, with a single dose concentration of 7.5mg/kg. Plasma and brain were sampled at 6 time-points, starting at 30 minutes (n=3 animals/time-point). Brain was extracted at the same plasma sampling time-point from each animal. Both plasma and brain samples were deproteinated. Brain samples were weighted, homogenized and CFI-400945 was extracted. […] The dosing solution was normalized in a matched matrix (mouse plasma) and analyzed in triplicate in the same analytical batch as the incurred samples (Absorption Systems - Exton, PA).

In data set [5] the test system is BT-12 AT/RT orthotopic xenografts. Briefly: Intracranial AT/RT xenograft tumors. In kind it is in vivo, athymic mice. The text has this: Six-week-old female athymic mice (rnu/rnu genotype, BALB/c background) were purchased from Envigo (Harlan) and housed under aseptic conditions, which included filtered air and sterilized food, water, bedding, and cages. The Northwestern University Institutional Animal Care and Use Committee approved all animal protocols. The BT-12 AT/RT cell line, which has high expression of PLK4 was modified to express luciferase and injected intracranially in nude mice as previously described. Each mouse was injected with a cell suspension (10,000 cells/3μL) into the right caudate putamen of the brain. […] Bioluminescence monitoring was performed twice a week throughout the course of the experiment for quantitative measurement of tumor growth and response to therapy. Kaplan-Meier survival analysis was performed to assess survival benefit within the treatment group as compared to controls. Differences between survival curves were calculated using a log-rank test. Brains were resected at 6 hours following completion of the treatment and placed in 4% paraformaldehyde for subsequent histological examination.

Details of data set [6]: method as in PMID 28057846. The settings on record: adults with advanced solid tumors; cited from earlier work.
The next data set has as its target hERG K+ channel (Homo sapiens, UniProt Q12809). Briefly: biochemical.
Setting [7] is: H&E of xenografts, treated vs control, p-value<0.0001.

Where “and” joins values, the source holds several entries; their conditions need not be identical. Equal values may be shown once.

Sequence of various kinases (Homo sapiens, UniProt P05771) (P05771 whole entry): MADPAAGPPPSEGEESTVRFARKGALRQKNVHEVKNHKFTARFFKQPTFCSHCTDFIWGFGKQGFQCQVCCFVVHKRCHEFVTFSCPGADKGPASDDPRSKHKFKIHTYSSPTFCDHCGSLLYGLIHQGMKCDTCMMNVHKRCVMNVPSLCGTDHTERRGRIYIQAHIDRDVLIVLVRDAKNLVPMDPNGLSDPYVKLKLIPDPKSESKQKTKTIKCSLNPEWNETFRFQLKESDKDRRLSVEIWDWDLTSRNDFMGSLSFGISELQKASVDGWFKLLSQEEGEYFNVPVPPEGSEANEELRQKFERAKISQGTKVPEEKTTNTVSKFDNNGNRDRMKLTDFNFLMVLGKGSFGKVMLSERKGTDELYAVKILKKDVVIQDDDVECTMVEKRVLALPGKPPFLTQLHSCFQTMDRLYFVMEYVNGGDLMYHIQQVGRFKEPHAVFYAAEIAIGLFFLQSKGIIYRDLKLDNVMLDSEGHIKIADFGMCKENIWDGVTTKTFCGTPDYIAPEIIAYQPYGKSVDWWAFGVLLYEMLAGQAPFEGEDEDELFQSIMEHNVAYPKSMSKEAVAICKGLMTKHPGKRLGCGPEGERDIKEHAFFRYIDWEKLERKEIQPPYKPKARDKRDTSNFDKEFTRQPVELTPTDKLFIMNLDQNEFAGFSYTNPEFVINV
Sequence of DDR2 (Q16832 22-855): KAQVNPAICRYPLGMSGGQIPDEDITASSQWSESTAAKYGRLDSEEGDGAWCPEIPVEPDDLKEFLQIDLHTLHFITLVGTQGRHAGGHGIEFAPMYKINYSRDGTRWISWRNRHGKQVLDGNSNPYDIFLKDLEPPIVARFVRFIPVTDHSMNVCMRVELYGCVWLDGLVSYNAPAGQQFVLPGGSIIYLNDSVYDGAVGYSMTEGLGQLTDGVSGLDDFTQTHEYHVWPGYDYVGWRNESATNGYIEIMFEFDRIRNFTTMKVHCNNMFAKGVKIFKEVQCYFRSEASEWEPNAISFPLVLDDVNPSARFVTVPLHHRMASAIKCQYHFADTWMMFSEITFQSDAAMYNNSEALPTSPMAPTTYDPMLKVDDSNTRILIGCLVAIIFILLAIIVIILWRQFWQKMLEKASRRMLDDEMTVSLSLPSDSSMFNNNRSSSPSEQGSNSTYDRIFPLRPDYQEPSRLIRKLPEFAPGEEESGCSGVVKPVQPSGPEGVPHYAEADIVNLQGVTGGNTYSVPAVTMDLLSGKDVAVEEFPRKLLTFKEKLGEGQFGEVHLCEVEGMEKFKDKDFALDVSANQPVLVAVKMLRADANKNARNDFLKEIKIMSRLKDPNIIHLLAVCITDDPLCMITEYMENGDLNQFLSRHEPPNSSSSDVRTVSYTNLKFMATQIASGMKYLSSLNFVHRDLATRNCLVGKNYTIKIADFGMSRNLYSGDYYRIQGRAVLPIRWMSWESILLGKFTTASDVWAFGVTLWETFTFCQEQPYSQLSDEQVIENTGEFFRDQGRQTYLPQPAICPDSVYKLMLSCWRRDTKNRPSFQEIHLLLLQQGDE
Sequence of various kinases (Homo sapiens, UniProt P07333) (P07333 20-972): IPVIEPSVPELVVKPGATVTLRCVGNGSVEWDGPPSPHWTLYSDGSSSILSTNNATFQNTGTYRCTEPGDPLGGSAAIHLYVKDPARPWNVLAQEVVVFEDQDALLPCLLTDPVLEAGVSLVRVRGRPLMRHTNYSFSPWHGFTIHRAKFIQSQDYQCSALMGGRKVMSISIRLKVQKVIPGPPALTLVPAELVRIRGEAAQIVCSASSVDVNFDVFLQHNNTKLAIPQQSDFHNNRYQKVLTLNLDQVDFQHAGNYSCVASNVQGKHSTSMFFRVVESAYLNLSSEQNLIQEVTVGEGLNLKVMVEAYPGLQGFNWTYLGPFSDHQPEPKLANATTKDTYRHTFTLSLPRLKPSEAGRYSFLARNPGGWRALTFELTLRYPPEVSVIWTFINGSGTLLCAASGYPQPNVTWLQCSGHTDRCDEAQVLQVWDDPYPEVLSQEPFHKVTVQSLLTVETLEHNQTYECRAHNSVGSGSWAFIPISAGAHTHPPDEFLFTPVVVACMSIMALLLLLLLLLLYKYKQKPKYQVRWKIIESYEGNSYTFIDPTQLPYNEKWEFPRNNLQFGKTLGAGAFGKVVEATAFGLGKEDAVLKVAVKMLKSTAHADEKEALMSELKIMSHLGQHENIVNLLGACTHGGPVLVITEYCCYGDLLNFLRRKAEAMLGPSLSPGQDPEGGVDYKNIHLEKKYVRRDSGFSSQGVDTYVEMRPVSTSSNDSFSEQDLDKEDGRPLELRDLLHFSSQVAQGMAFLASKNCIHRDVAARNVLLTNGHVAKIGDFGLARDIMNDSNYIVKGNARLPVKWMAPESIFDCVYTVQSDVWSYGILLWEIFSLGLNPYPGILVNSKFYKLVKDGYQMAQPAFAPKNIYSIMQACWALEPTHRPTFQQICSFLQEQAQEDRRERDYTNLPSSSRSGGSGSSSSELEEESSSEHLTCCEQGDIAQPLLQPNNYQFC
Sequence of hERG K+ channel (Q12809 whole entry): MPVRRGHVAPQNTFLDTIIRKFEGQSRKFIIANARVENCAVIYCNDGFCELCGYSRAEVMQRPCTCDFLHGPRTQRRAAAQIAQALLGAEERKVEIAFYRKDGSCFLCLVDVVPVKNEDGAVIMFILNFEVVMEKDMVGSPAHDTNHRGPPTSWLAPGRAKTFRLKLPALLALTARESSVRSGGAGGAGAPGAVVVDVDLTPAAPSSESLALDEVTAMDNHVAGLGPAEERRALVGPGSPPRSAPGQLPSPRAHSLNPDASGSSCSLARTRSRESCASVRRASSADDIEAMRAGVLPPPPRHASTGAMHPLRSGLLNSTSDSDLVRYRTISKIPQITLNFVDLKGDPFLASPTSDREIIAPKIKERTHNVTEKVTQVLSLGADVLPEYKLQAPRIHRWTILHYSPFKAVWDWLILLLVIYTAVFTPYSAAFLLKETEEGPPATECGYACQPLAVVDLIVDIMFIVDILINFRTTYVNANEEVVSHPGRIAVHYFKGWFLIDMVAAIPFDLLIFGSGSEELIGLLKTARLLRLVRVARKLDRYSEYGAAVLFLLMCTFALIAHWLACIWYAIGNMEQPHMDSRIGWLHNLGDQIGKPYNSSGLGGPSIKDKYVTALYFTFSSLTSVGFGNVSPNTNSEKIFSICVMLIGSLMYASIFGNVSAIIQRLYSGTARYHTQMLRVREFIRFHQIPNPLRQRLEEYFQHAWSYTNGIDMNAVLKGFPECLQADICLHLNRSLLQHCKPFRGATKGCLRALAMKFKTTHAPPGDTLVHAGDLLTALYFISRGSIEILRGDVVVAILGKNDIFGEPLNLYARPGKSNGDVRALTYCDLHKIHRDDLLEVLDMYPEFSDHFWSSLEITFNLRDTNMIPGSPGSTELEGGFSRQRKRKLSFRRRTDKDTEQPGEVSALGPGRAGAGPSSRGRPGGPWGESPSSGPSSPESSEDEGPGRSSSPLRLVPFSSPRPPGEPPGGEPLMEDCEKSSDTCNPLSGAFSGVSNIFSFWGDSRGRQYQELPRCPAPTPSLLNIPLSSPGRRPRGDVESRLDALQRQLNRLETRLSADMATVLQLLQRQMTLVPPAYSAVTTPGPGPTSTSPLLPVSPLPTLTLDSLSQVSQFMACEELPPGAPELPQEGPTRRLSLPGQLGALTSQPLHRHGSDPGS
Sequence of MUSK (O15146 24-869): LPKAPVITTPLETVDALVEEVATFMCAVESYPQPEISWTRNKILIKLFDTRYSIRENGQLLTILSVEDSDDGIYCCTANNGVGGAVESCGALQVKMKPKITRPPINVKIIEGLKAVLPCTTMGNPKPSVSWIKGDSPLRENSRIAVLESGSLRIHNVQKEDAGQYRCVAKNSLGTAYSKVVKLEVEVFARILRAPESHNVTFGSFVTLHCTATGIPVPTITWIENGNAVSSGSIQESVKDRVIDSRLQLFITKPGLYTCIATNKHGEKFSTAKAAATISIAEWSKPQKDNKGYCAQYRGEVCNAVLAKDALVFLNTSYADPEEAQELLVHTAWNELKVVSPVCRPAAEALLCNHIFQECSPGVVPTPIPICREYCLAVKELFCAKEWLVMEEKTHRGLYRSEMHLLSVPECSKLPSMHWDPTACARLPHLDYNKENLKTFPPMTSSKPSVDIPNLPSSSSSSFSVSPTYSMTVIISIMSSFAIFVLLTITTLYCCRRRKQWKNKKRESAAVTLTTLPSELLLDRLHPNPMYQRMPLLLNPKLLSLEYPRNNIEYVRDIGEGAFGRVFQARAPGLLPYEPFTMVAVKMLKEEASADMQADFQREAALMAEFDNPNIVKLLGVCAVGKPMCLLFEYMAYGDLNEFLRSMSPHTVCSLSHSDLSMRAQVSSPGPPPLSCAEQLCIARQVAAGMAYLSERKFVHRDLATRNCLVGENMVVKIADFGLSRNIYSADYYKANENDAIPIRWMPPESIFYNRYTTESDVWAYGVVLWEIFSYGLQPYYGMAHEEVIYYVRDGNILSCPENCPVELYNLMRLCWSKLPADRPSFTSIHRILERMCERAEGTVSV

As for `COc1ccc2c(c1)[C@]1(C[C@H]1c1ccc3c(/C=C/c4ccc(CN5C[C@@H](C)O[C@@H](C)C5)cc4)n[nH]c3c1)C(=O)N2` [CFI-400945], the IC50 was 315 nM on DDR2 (10-point titration); 48.7 nM against MUSK; 5130 nM in the data set with MON cells; 3790 nM with G401 cells; above 500 nM against hERG K+ channel. In addition, the “% Inhibition” value on DDR2 (DDR2, LanthaScreen Binding) was 9% and 18%; at various kinases [2], 14% and 15%. Also, the “% Inhibition Average” value on various kinases [1] was 17%. Also, on various kinases [1], the “% Inhibition Duplicate #1” value worked out at 18%. On various kinases [1], the “% Inhibition Duplicate #2” value was determined as 16%. Also, the “FC, delay in reaching confluency” value in the data set with MON MRT cells is given as 1.56; with BT-12 AT/RT cells, 1.89. The “PLK4 expression (qPCR) vs control” value in data set [3] was “time dependent decrease”. Besides, the “polyploidy (cell cycle analysis)” value in the data set with MON rhabdoid cells is “time-dependent induction of polyploidy”. In addition, the Kp at 4 h in data set [4] (brain / plasma, fasted male CD-1 mice, triplicates, read-out: Average Raw B:P Ratio) is around 0.08. The concentration at 4 h in [4] (plasma, plasma density assumed 1 g/mL, individual mice #355, 356, 357, read-out: Plasma Conc.) stood at 498 ng/g. In [5] (7.5 mg/kg/day oral for 21 days, p=0.0146), the “growth of intracranial AT/RT tumors (luminescence)” value is reported as “significantly reduced”. Besides, the “survival of treated animals” value in [5] (7.5 mg/kg/day oral for 21 days, p=0.0477, log-rank test) is listed as “extended”. For the same compound, the “nuclear area FC in tumor cells” value in data set [5] (setting [7]) was found to be 21.67. The “nuclear diameter FC in tumor cells” value in data set [5] (setting [7]) is reported as 2.69. For the same compound, the “tolerability, preliminary phase I results” value in [6] was “well tolerated at doses up to 72 mg”.
